Assay [1] concerns the target T1, CCKB receptor (guinea pig cerebral cortex) (Cavia porcellus, UniProt H0VZC5).
T1 construct: CCKB (nM); other: guinea pig cerebral cortex membranes, 125I-Bolton-Hunter CCK 25 pM; Activity CCK-B [μM]; guinea pig cerebral cortex membranes
T1 sequence (H0VZC5 1-426): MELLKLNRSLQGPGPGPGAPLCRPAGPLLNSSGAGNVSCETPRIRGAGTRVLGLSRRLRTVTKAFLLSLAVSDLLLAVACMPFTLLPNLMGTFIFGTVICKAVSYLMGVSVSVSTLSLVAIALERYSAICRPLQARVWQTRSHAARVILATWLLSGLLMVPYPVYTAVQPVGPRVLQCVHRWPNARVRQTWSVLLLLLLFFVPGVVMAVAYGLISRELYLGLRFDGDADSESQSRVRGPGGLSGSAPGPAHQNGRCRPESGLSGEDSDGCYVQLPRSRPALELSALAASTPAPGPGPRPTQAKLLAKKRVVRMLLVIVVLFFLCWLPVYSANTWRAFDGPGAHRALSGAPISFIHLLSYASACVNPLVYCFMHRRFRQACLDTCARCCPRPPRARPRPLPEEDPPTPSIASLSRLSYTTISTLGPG
Put plainly: 125I-CCK-8 receptor binding assay, CCKB. To be noted: guinea pig cerebral cortex membranes. The procedure:
(§1) CCKA and CCKB receptor binding assays were performed, by using guinea pig cerebral cortex (CCKB) or rat pancreas (CCKA). Male guinea pig brain tissues were prepared according to the modified method described by Saita et al, [(1994), Characterization of YM022: its CCKB/gastrin receptor binding profile and antagonism to CCK-8-induced Ca2+mobilization., Eur. J. Pharmacol.,269, 249-254]. Pancreatic membranes were prepared in a similar way but by Charpentier et al, [(1988), Cyclic cholecystokinin analogues with high selectivity for central receptors., Proc Natl Acad Sci USA, 85, 1968-1972]. The […] CCK binding assay: Tissues were homogenized in ice cold sucrose (0.32 M, 25 ml) for 15 strokes at 500 rpm and centrifuged at 13000 rpm for 10 mins. The supernatant was re-centrifuged at 13000 rpm for 20 mins. The resulting pellet was re-dispersed to the required volume of buffer at 500 rpm and stored in aliquots at […].
(§2) Binding was achieved using a radioligand ^125I-Bolton-Hunter labeled CCK, NEN at 25 pM. The samples were incubated {with membranes (0.1 mg/ml) } in 20 mM Hepes, 1 mM EGTA, 5 mM MgCl2, 150 mm NaCl, 0.25 mg/ml bacitracin at pH 6.5 for 2 hrs at RT and then […] by centrifugation at 1100 rpm for 5 minutes. The membrane pellets were washed twice with water and the bound radioactivity was measured in a Packard Cobra Auto-gamma counter (B5005). All binding assays were carried out with L-363, 260 as an internal non-specific standard. Controls (no compound) were also added. All samples were made in duplicate and repeated twice. All compounds were initially screened for percentage inhibition at 20 μm. Samples showing an average inhibition of <35% were diluted to 2 μm and re-screened and if active diluted again.

Assay [2] addresses T2, CCKA receptor (rat pancreas) (Rattus norvegicus, UniProt P30551).
T2 construct: Pancreatic membranes were prepared in a similar way but by Charpentier et al; from tissue; host or cells: rat pancreas membranes
T2 sequence (P30551 1-444): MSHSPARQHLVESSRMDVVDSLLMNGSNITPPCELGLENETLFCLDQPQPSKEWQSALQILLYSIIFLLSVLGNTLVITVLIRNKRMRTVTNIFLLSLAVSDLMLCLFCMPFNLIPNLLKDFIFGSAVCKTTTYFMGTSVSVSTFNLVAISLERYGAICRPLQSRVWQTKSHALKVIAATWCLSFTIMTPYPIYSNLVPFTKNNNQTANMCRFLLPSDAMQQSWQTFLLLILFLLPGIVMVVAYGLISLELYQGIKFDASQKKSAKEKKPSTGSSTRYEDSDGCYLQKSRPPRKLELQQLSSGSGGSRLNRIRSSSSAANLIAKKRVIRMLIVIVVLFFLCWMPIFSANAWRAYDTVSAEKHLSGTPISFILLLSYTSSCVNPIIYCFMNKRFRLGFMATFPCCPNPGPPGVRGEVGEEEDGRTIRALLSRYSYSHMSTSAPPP
Put plainly: 125I-CCK-8 receptor binding assay, CCKA. As to conditions: rat pancreas membranes, 125I-Bolton-Hunter CCK 25 pM. The procedure:
as §1, §2

The subject of assay [3] is CCKB receptor (guinea pig cerebral cortex). Put plainly: 125I-CCK-8 receptor binding assay, CCKB. To be noted: ratio CCKB/CCKA. The method, then:
as §1, §2

Where [4] appears, read: Table 2, read-out: Activity CCK-B [μM] (IC50).
Setting [5] is: 125I-Bolton-Hunter CCK 25 pM, read-out: CCKB.

The values below come from patent US20070123718A1, “Novel 4-amino-2(5H)-furanones” (Aston University, priority 2003, published 2007).

Where two headings read alike, the source gives them in different places. Bounds are passed on as bounds.

As for `COC1OC(=O)C(Cl)=C1n1ccc(C)n1` (stereo not drawn) [Example A8B26], the IC50 in assay [1] (setting [4]) was 11 µM.

With `C#CCOC1OC(=O)C(Cl)=C1N1CC(C)OC(C)C1` (stereo not drawn) [Example 3, 3-Chloro-4-(2,6-dimethylmorpholin-4-yl)-5-(prop-2-ynyloxy)furan-2(5H)-one], the IC50 in assay [1] (setting [4]) stood at 12.6 µM.

Turning to `CC1CCC(C(C)C)C(OC2OC(=O)C(Cl)=C2N2CCCC2)C1` (stereo not drawn) [Example A1B9], the IC50 in assay [1] (setting [4]) was determined as 2.2 µM.

As for `COC1OC(=O)C(Cl)=C1N1CCN(Cc2ccccc2)CC1` (stereo not drawn) [Example A8B16], the IC50 in assay [1] (setting [4]) was determined as 16 µM.

As for `COC1OC(=O)C(Cl)=C1N1CCC(c2ccccc2)CC1` (stereo not drawn) [Example A8B11], the IC50 in assay [1] (setting [4]) is 3 µM.

Take `CCCCCCCCCCCCCCCCOC1OC(=O)C(Cl)=C1N1CCN(C(=O)OCC)CC1` (stereo not drawn) [Example A7B24]: the IC50 in assay [1] (setting [4]) stood at 12.4 µM.

On to `CC(C)OC1OC(=O)C(Cl)=C1NCc1ccccc1Cl` (stereo not drawn) [Example 11, 3-Chloro-4-[(2-chlorobenzyl)amino]-5-isopropoxy-4-2(SH)-oue], for which the IC50 in assay [1] (setting [4]) was determined as 0.95 µM.

For the molecule `COC1OC(=O)C(Cl)=C1NC1CCC(CCCc2ccccc2)CC1` (stereo not drawn) [Example A8B25], in assay [1] (setting [4]), the IC50 was 16 µM.

As for `C#CCOC1OC(=O)C(Cl)=C1N(C(C)C)C1CCCCC1` (stereo not drawn) [Example 6, 3-Chloro-4-[cyclohexyl(isopropyl)amino]-5-(prop-2-ynyloxy)furan-2(5H)-one], the IC50 in assay [2] came to 0.006 µM; in assay [1] (setting [5]) it was 0.008 µM. Also, the Selectivity in assay [3] turned out to be 1.3.

Consider `O=C1OC(Cl)C(Nc2ccccc2)=C1Cl` (stereo not drawn) [Example 8, 4-Anilino-3,5-dichlorofuran-2(5H)-one], for which the IC50 in assay [1] (setting [4]) amounted to 16 µM.

Turning to `CC(C)OC1OC(=O)C(Cl)=C1N(C)Cc1ccccc1` (stereo not drawn) [Example 10, 4-[Benzyl(methyl)amino]-3-chloro-5-isopropoxyfuran-2(5H)-one], the IC50 in assay [1] (setting [4]) was found to be 12 µM.

Consider `CC(C)CNC1=C(Cl)C(=O)OC1c1ccccc1` (stereo not drawn) [Example 17, 3-Chloro-4-(isobutylamino)-5-phenyl furan-2(5H)-one], for which the IC50 in assay [2] was found to be 0.007 µM; in assay [1] (setting [5]), 0.011 µM. Also, the Selectivity in assay [3] was 1.6.

With `C#CCOC1OC(=O)C(Cl)=C1NCc1ccccc1` (stereo not drawn) [Example 4, 4-(Benzylamino)-3-chloro-5-(prop-2-ynyloxy)furan-2(5H)-one], the results for the IC50 in assay [2] and in assay [1] (setting [5]) were 0.009 µM and 0.014 µM, respectively. Also, in assay [3], the Selectivity came to 1.5.

Turning to `CCCCCCNC1=C(Cl)C(=O)OC1OC` (stereo not drawn) [Example 15, 3-Chloro-4-(hexylamino)-5-methoxyfuran-2(5H)-one], the IC50 was found to be 0.008 µM in assay [2] and 0.012 µM in assay [1] (setting [5]). Further, the Selectivity in assay [3] worked out at 1.5.

Consider `COC1OC(=O)C(Cl)=C1n1cnc2ccccc21` (stereo not drawn) [Example A8B3], for which the IC50 in assay [1] (setting [4]) came out at 2.3 µM.

Consider `COC1OC(=O)C(Cl)=C1N1CCN(c2ccccc2)CC1` (stereo not drawn) [Example A8B8], for which the IC50 in assay [1] (setting [4]) is 14 µM.

Consider `CC1CCC(C(C)C)C(OC2OC(=O)C(Cl)=C2N(C)Cc2ccccc2)C1` (stereo not drawn) [Example 1, 4-[Benzyl(metliyl)arino]-3-chloro-5-[(2-isopropyl-5-methlylcyclohexyl)oxo] furan-2(5H)-one], for which the IC50 in assay [1] (setting [4]) amounted to 0.31 µM.

In the case of `COC1OC(=O)C(Cl)=C1N1CCc2ccccc21` (stereo not drawn) [Example A8B2], in assay [1] (setting [4]), the IC50 is 1.5 µM.

For `CC(=O)OC1OC(=O)C(Cl)=C1N1CCc2ccccc21` (stereo not drawn) [Example 2, 4-ClIforo-3-(2,3-dihydro-1H-indol-1-yl)-5-oxo-2,5-dihydrofuran-2-yl acetate], the IC50 in assay [1] (setting [4]) was > 20 µM.

Regarding `CC(C)OC1OC(=O)C(Cl)=C1NCCc1ccccc1` (stereo not drawn) [Example 13, 3-Chloro-5-isopropoxy-4-(phenethylamine)furan-2(5H)-one], the IC50 in assay [1] (setting [4]) is 1.1 µM.

In the case of `C#CCOC1OC(=O)C(Cl)=C1N1C(C)CNCC1C` (stereo not drawn) [Example A3B20], in assay [1] (setting [4]), the IC50 turned out to be 11.2 µM.

As to `COC1OC(=O)C(Cl)=C1NCCCN1CCOCC1` (stereo not drawn) [Example A8B17], the IC50 in assay [1] (setting [4]) stood at 15 µM.

Turning to `COC1OC(=O)C(Cl)=C1Nc1c(C)n(C)n(-c2ccccc2)c1=O` (stereo not drawn) [Example 14], the IC50 in assay [1] (setting [4]) was 18 µM.

Consider `CCCCCCCCCCCCNC1=C(Cl)C(=O)OC1OC` (stereo not drawn) [Example A8B10], for which the IC50 in assay [1] (setting [4]) stood at 2.5 µM.

For `CC(C)OC1OC(=O)C(Cl)=C1N1CCc2ccccc21` (stereo not drawn) [Example 9, 3-Chloro-4-(2,3-dihydro-1H-indol-1-yl)-5-isopropoxy-2(5H)-one], the IC50 in assay [1] (setting [4]) worked out at 2.5 µM.

In the case of `CCCCCCCCCCCCCCCCOC1OC(=O)C(Cl)=C1n1cc(C)cc1C` (stereo not drawn) [Example A7B23], in assay [1] (setting [4]), the IC50 was 0.86 µM.

Take `CCN(C1=C(Cl)C(=O)OC1CC(=O)c1ccc(Cl)cc1)c1cccc(C)c1` (stereo not drawn) [Example 16, 3-Chloro-5-[2-(4-chlorophenyl)-2-oxoethyl]-4-(ethyl-3-methylanilino) furan-2(5H)-one]: the IC50 in assay [2] came out at 0.008 µM; in assay [1] (setting [5]), 0.019 µM. Besides, the Selectivity in assay [3] was 2.3.

Take `C#CCOC1OC(=O)C(Cl)=C1N1CCN(Cc2ccccc2)CC1` (stereo not drawn) [Example 5, 4-(4-Benzylpiperazin-1-yl) 3-chloro-5-(prop-2-ynyloxy)furan-2(5H)-one]: the IC50 in assay [1] (setting [4]) was > 20 µM.

With `CC(C)OC1OC(=O)C(Cl)=C1N(Cc1ccccc1)Cc1ccccc1` (stereo not drawn) [Example 12, 3-Chloro-4-(dibenzylamino)-5-isopropoxyfuran-2(5H)-one], the IC50 in assay [1] (setting [4]) was found to be 17 µM.

Turning to `C=COC1OC(=O)C(Cl)=C1Nc1c(C)n(C)n(-c2ccccc2)c1=O` (stereo not drawn) [Example 7, 3-Chloro-4-[(1,5-dimethyl-2-phenyl-1,3-dihydro-3H-pyrazol-3-one)amino]-5-(vinyloxy)furan-2(5H)-one], in assay [1] (setting [4]), the IC50 was 3.3 µM.

For the molecule `CCC(C)NC1=C(Cl)C(=O)OC1OC` (stereo not drawn) [Example A8B5], the IC50 in assay [1] (setting [4]) came to 1.2 µM.

In the case of `COC1OC(=O)C(Cl)=C1Nc1cccc(C)c1` (stereo not drawn) [Example A8B4], in assay [1] (setting [4]), the IC50 turned out to be 2.5 µM.
